Key:
[1] = biological target: T1, recombinant human cannabinoid receptor CB2 (Homo sapiens, UniProt P34972); assay: Cannabinoid receptor radioligand binding assay, [3H]-CP 55,940 displacement, hCB2
T1 construct: (cDNA clone) CNR0200000
Method in brief: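 Membranes from hCB2-transfected cells, prepared by 1000×g then 40,000×g centrifugation, resuspended in 20 mM HEPES pH 7.4, 5 mM MgCl2, 1 mM EDTA, 10% sucrose.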

[2] = biological target: T2, recombinant human cannabinoid receptor CB1 (Homo sapiens, UniProt P21554); assay: Cannabinoid receptor radioligand binding assay, [3H]-CP 55,940 displacement, hCB1
T2 construct: (cDNA clone) CNR01L000
T2 sequence (P21554 whole entry): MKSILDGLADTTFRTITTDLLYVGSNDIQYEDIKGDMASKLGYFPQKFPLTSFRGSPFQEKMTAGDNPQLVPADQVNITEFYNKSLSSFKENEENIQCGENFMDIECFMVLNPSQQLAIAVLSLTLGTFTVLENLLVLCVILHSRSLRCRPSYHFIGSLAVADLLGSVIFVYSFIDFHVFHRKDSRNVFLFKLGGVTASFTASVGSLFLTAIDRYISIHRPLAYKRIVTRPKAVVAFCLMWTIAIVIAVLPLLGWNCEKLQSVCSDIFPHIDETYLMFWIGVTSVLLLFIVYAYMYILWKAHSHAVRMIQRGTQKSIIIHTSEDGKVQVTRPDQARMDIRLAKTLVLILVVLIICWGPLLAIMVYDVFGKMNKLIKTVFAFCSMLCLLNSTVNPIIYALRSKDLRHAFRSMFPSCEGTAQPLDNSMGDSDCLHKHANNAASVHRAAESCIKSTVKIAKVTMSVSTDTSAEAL
Method in brief: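 Membranes from HEK-293 cells stably expressing human CB1, 2-10 μg protein, incubated 90 min at room temperature with 0.5 nM [3H]-CP 55,940 in Tris-HCl pH 7.5, MgCl2, EDTA and 0.1% fatty-acid-free BSA. Bound radioactivity counted after rapid filtration; nonspecific binding defined with 1 μM unlabeled CP 55,940.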

human CB2 (hCB2) = biological target: T3, human CB2 (hCB2) (Homo sapiens, UniProt P34972); assay: 35S GTPγS binding assay, hCB2 agonist; type: biochemical; conditions: GTPγS agonist, HEK-293 membranes; read-out: hCB2 EC50 (GTPyS ag)
T3 construct: (cDNA clone) CNR0200000
T3 sequence (P34972 whole entry): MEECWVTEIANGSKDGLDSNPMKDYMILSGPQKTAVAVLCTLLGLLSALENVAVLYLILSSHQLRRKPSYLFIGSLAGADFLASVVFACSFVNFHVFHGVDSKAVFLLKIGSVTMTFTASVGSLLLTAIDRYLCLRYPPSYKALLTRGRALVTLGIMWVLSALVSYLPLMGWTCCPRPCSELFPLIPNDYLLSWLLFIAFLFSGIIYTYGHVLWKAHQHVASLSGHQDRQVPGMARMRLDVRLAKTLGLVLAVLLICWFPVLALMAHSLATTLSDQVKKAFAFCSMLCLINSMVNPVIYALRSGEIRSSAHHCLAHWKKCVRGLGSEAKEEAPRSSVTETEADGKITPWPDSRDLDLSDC
Method in brief: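 Membranes (5 μg) from cells transfected with hCB2 cDNA in pcDNA3.1+ incubated with SPA beads, 0.1 nM [35S]GTPγS and 20 uM GDP in 50 mM HEPES pH 7.4, 100 mM NaCl, 5 mM MgCl2, 0.001% saponin, ± test compound. Incubation 90 min at room temperature; bound label read by scintillation counting.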

T1 sequence (P34972 whole entry): as above

SMILES | IC50 [1] [nM] | IC50 [2] [nM] | EC50 (human CB2 (hCB2)) [nM]
Cc1cc2cc(C(=O)c3cccc(Cl)c3)sc2n1CCN1CCOCC1 [Compound 4, (3-Chlorophenyl)(5-methyl-6-(2-morpholinoethyl)-6H-thieno[2,3-b]pyrrol-2-yl)methanone] | 100 to 1000 | 1000 to 10000 | < 100
Cc1cc2cc(C(=O)c3ccccc3)sc2n1CCN1CCOCC1 [Compound 7, (5-Methyl-6-(2-morpholinoethyl)-6H-thieno[2,3-b]pyrrol-2-yl)(phenyl)methanone] | 100 to 1000 | 1000 to 10000 | 100 to 1000
Cc1cc2cc(C(=O)c3ccc(Cl)cc3Cl)sc2n1CCN1CCOCC1 [Compound 10, (2,4-Dichlorophenyl)(5-methyl-6-(2-morpholinoethyl)-6H-thieno[2,3-b]pyrrol-2-yl)methanone] | < 100 | 100 to 1000 | < 100
Cc1ccccc1C(=O)c1cc2cc(C)n(CCN3CCOCC3)c2s1 [Compound 12, (5-Methyl-6-(2-morpholinoethyl)-6H-thieno[2,3-b]pyrrol-2-yl)(o-tolyl)methanone] | < 100 | 1000 to 10000 | < 100
CCn1c(C)cc2cc(C(=O)c3cccc(Cl)c3Cl)sc21 [Compound 19, (2,3-Dichlorophenyl)(6-ethyl-5-methyl-6H-thieno[2,3-b]pyrrol-2-yl)methanone] | 100 to 1000 | > 10000 | 100 to 1000
CCS(=O)(=O)n1c(C)cc2cc(C(=O)c3cccc(Cl)c3Cl)sc21 [Compound 25, (2,3-Dichlorophenyl)(6-(ethylsulfonyl)-5-methyl-6H-thieno[2,3-b]pyrrol-2-yl)methanone] | < 100 | 1000 to 10000 | < 100
COc1cccc(C(=O)c2cc3cc(C)n(CCN4CCOCC4)c3s2)c1 [Compound 26, (3-Methoxyphenyl)(5-methyl-6-(2-morpholinoethyl)-6H-thieno[2,3-b]pyrrol-2-yl)methanone] | < 100 | 100 to 1000 | < 100
Cc1cc2cc(C(=O)c3cccc(Cl)c3Cl)sc2n1CCc1ccccc1 [Compound 30, (2,3-Dichlorophenyl)(5-methyl-6-phenethyl-6H-thieno[2,3-b]pyrrol-2-yl)methanone] | < 100 | 100 to 1000 | < 100
Cc1cc2cc(C(=O)c3cccc(Cl)c3Cl)sc2n1CC1CCOCC1 [Compound 31, (2,3-Dichlorophenyl)(5-methyl-6-((tetrahydro-2H-pyran-4-yl)methyl)-6H-thieno[2,3-b]pyrrol-2-yl)methanone] | < 100 | 100 to 1000 | < 100
Cc1cc2cc(Cc3cccc(Cl)c3Cl)sc2n1CCN1CCOCC1 [Compound 32, 4-(2-(2-(2,3-Dichlorobenzyl)-5-methyl-6H-thieno[2,3-b]pyrrol-6-yl)ethyl)morpholine] | < 100 | 1000 to 10000 | < 100
Cc1cc2cc(C(=O)c3cccc(Cl)c3Cl)sc2n1CCN1CCN(C)CC1 [Compound 33, (2,3-Dichlorophenyl)(5-methyl-6-(2-(4-methylpiperazin-1-yl)ethyl)-6H-thieno[2,3-b]pyrrol-2-yl)methanone] | 1000 to 10000 | > 10000 | 
Cc1cc2cc(C(=O)c3cccc(Cl)c3Cl)sc2n1CCCNS(C)(=O)=O [Compound 37, N-(3-(2-(2,3-Dichlorobenzoyl)-5-methyl-6H-thieno[2,3-b]pyrrol-6-yl)propyl)methanesulfonamide] | < 100 | > 10000 | < 100
Cc1cc2cc(C(=O)c3cccc(Cl)c3Cl)sc2n1S(=O)(=O)C(C)C [Compound 38, (2,3-Dichlorophenyl)(6-(isopropylsulfonyl)-5-methyl-6H-thieno[2,3-b]pyrrol-2-yl)methanone] | < 100 | 1000 to 10000 | < 100
CCS(=O)(=O)n1c(C)cc2cc(C(=O)c3ccccc3Cl)sc21 [Compound 42, (2-Chlorophenyl)(6-(ethylsulfonyl)-5-methyl-6H-thieno[2,3-b]pyrrol-2-yl)methanone] | 100 to 1000 | 1000 to 10000 | < 100
CCS(=O)(=O)n1c(C)cc2cc(C(=O)c3cccnc3Cl)sc21 [Compound 43, (2-Chloropyridin-3-yl)(6-(ethylsulfonyl)-5-methyl-6H-thieno[2,3-b]pyrrol-2-yl)methanone] | 100 to 1000 | > 10000 | < 100
COc1ccc(C(=O)c2cc3cc(C)n(CCCNS(C)(=O)=O)c3s2)cc1 [Compound 44, N-(3-(2-(4-methoxybenzoyl)-5-methyl-6H-thieno[2,3-b]pyrrol-6-yl)propyl)methanesulfonamide] | < 100 | 1000 to 10000 | < 100

SMILES | IC50 [1] [nM] | IC50 [2] [nM] | EC50 (human CB2 (hCB2)) [nM]
Cc1cc2cc(C(=O)c3cccc(Cl)c3Cl)sc2n1S(=O)(=O)N1CCOCC1 [Compound 45, (2,3-Dichlorophenyl)(5-methyl-6-(morpholinosulfonyl)-6H-thieno[2,3-b]pyrrol-2-yl)methanone] | < 100 | < 100 | < 100
Cc1cc2cc(C(=O)c3cccc(Cl)c3Cl)sc2n1S(=O)(=O)CC1CCOCC1 [Compound 46, (2,3-Dichlorophenyl)(5-methyl-6-((tetrahydro-2H-pyran-4-yl)methylsulfonyl)-6H-thieno[2,3-b]pyrrol-2-yl)methanone] | < 100 | < 100 | < 100
COc1ncccc1C(=O)c1cc2cc(C)n(CCN3CCOCC3)c2s1 [Compound 47, (2-Methoxypyridin-3-yl)(5-methyl-6-(2-morpholinoethyl)-6H-thieno[2,3-b]pyrrol-2-yl)methanone] | 1000 to 10000 | > 10000 | 100 to 1000
COc1ccc(C(=O)c2cc3cc(C)n(S(=O)(=O)N(C)C)c3s2)cc1 [Compound 51, 2-(4-Methoxybenzoyl)-N,N,5-trimethyl-6H-thieno[2,3-b]pyrrole-6-sulfonamide] | < 100 | 1000 to 10000 | < 100
COc1ccc(C(=O)c2cc3cc(C)n(S(=O)(=O)N4CCOCC4)c3s2)cc1 [Compound 53, (4-methoxyphenyl)(5-methyl-6-(morpholinosulfonyl)-6H-thieno[2,3-b]pyrrol-2-yl)methanone] | < 100 | < 100 | < 100
Cc1cc2cc(C(=O)c3ccc(F)cc3)sc2n1CCN1CCOCC1 [Compound 54, (4-Fluorophenyl)(5-methyl-6-(2-morpholinoethyl)-6H-thieno[2,3-b]pyrrol-2-yl)methanone] | 100 to 1000 | 1000 to 10000 | < 100
CCS(=O)(=O)n1c(C)cc2cc(C(=O)c3ccc(OC)cc3)sc21 [Compound 56, (6-(Ethylsulfonyl)-5-methyl-6H-thieno[2,3-b]pyrrol-2-yl)(4-methoxyphenyl)methanone] | 100 to 1000 | > 10000 | < 100
COc1ccc(C(=O)c2cc3cc(C)n(S(=O)(=O)CC4CCOCC4)c3s2)cc1 [Compound 57, (4-Methoxyphenyl)(5-methyl-6-((tetrahydro-2H-pyran-4-yl)methylsulfonyl)-6H-thieno[2,3-b]pyrrol-2-yl)methanone] | < 100 | < 100 | < 100
COc1ccc(C(=O)c2cc3cc(C)n(CCN4CCOCC4)c3s2)cn1 [Compound 58, (6-Methoxypyridin-3-yl)(5-methyl-6-(2-morpholinoethyl)-6H-thieno[2,3-b]pyrrol-2-yl)methanone] | 100 to 1000 | > 10000 | < 100
Cc1cc2cc(C(=O)c3ccc(C(F)(F)F)cc3)sc2n1CCN1CCOCC1 [Compound 60, (5-Methyl-6-(2-morpholinoethyl)-6H-thieno[2,3-b]pyrrol-2-yl)(4-(trifluoromethyl)phenyl)methanone] | 1000 to 10000 | > 10000 | 1000 to 10000
COc1ccc(C(=O)c2cc3cc(C)n(CC4CCOCC4)c3s2)cc1 [Compound 62, (4-Methoxyphenyl)(5-methyl-6-((tetrahydro-2H-pyran-4-yl)methyl)-6H-thieno[2,3-b]pyrrol-2-yl)methanone] | < 100 | 1000 to 10000 | < 100
COc1ccc(C(=O)c2cc3cc(C)n(CCN4CCOCC4)c3s2)c(Cl)c1 [Compound 70, (2-Chloro-4-methoxyphenyl)(5-methyl-6-(2-morpholinoethyl)-6H-thieno[2,3-b]pyrrol-2-yl)methanone] | < 100 | 100 to 1000 | < 100
COc1ccc(C(=O)c2cc3cc(C)n(CCN4CCCOCC4)c3s2)cn1 [Compound 158, (6-(2-(1,4-oxazepan-4-yl)ethyl)-5-methyl-6H-thieno[2,3-b]pyrrol-2-yl)(6-methoxypyridin-3-yl)methanone] |  | 100 to 1000 | 100 to 1000
COc1ccc(C(=O)c2cc3cc(C)n(CCNC4CCOC4)c3s2)cn1 (centres unmarked) [Compound 164, (6-methoxypyridin-3-yl)(5-methyl-6-(2-((tetrahydrofuran-3-yl)amino)ethyl)-6H-thieno[2,3-b]pyrrol-2-yl)methanone] |  | 1000 to 10000 | 1000 to 10000
COc1ccc(C(=O)c2cc3cc(C)n(CCN4CCCC4)c3s2)cn1 [Compound 167, (6-methoxypyridin-3-yl)(5-methyl-6-(2-(pyrrolidin-1-yl)ethyl)-6H-thieno[2,3-b]pyrrol-2-yl)methanone] |  | < 100 | 1000 to 10000
